# How the values were obtained:
# Assay in all cases: KinomeScan kinase profiling
# Type in all cases: binding
# [1] = molecular target: T1, RPS6KA6 (Kin.Dom.-2-C-terminal) (Homo sapiens, UniProt Q9UK32)
# T1 construct: RPS6KA6 (Kin.Dom.-2-C-terminal); host or cells: E. coli host derived from the BL21 strain, T7 phage lysate
# Outline: (§1)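 Kinases were expressed as T7 phage fusions in a BL21-derived E. coli host and the cleared lysates were used. Ligand beads were blocked with biotin and buffer (1% BSA, 0.05% Tween 20, 1 mM DTT). Compounds came from 40× DMSO stocks, and phage in the eluates was titred by qPCR.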
# CSK = molecular target: T2, CSK (Homo sapiens, UniProt P41240)
# T2 construct: host or cells: T7 phage in E. coli (BL21-derived)
# Outline: as §1
# TESK1 = molecular target: T3, TESK1 (Homo sapiens, UniProt Q15569)
# T3 construct: host or cells: E. coli host derived from the BL21 strain, T7 phage lysate
# Outline: as §1
# KIT = molecular target: T4, KIT (Homo sapiens, UniProt P10721)
# T4 construct: host or cells: T7 phage in E. coli host derived from BL21
# Outline: as §1
# ABL1 = molecular target: T5, ABL1 (Homo sapiens, UniProt P00519)
# T5 construct: host or cells: E. coli host derived from BL21 (T7 phage lysate)
# Outline: as §1
# FLT3 (D835Y) = molecular target: T6, FLT3 (D835Y) (Homo sapiens, UniProt P36888, D835Y)
# T6 construct: host or cells: E. coli host derived from BL21, infected with T7 phage
# Outline: as §1
# DAPK1 = molecular target: T7, DAPK1 (Homo sapiens, UniProt P53355)
# T7 construct: purchased Ambit Biosciences Corp (KinomeScan); host or cells: T7 phage in E. coli host derived from BL21
# Outline: as §1
# GSK3A = molecular target: T8, GSK3A (Homo sapiens, UniProt P49840)
# T8 construct: host or cells: E. coli host derived from BL21, infected with T7 phage
# Outline: as §1
# CSNK1D = molecular target: T9, CSNK1D (Homo sapiens, UniProt P48730)
# T9 construct: host or cells: T7 phage in E. coli (BL21-derived)
# Outline: as §1
# PDGFRA = molecular target: T10, PDGFRA (Homo sapiens, UniProt P16234)
# T10 construct: host or cells: E. coli host derived from the BL21 strain, infected with T7 phage
# Outline: as §1
# RIPK1 = molecular target: T11, RIPK1 (Homo sapiens, UniProt Q13546)
# T11 construct: host or cells: E. coli host derived from BL21, T7 phage lysate
# Outline: as §1
# PHKG2 = molecular target: T12, PHKG2 (Homo sapiens, UniProt P15735)
# T12 construct: host or cells: E. coli host derived from the BL21 strain, infected with T7 phage
# Outline: as §1
# MST2 = molecular target: T13, MST2 (Homo sapiens, UniProt Q13188)
# T13 construct: host or cells: T7 phage in E. coli host derived from BL21
# Outline: as §1
# NEK6 = molecular target: T14, NEK6 (Homo sapiens, UniProt Q9HC98)
# T14 construct: host or cells: T7 phage in E. coli host derived from BL21
# Outline: as §1
# SgK110 = molecular target: T15, SgK110 (Homo sapiens, UniProt P0C264)
# T15 construct: host or cells: E. coli host derived from the BL21 strain, T7 phage lysate
# Outline: as §1
# SIK = molecular target: T16, SIK (Homo sapiens, UniProt P57059)
# T16 construct: host or cells: E. coli host derived from the BL21 strain, T7 phage lysate
# Outline: as §1
# PRKD2 = molecular target: T17, PRKD2 (Homo sapiens, UniProt Q9BZL6)
# T17 construct: purchased Ambit Biosciences Corp (KinomeScan); host or cells: E. coli host derived from BL21, infected with T7 phage
# Outline: as §1
# ROCK2 = molecular target: T18, ROCK2 (Homo sapiens, UniProt O75116)
# T18 construct: host or cells: E. coli host derived from BL21, T7 phage lysate
# Outline: as §1
# [2] = molecular target: T19, RPS6KA4 (Kin.Dom.-1-N-terminal) (Homo sapiens, UniProt O75676)
# T19 construct: RPS6KA4 (Kin.Dom.-1-N-terminal); host or cells: E. coli host derived from BL21, T7 phage lysate
# Outline: as §1
# [3] = molecular target: T20, JAK1 (JH2domain-pseudokinase) (Homo sapiens, UniProt P23458)
# T20 construct: JAK1 (JH2domain-pseudokinase); host or cells: T7 phage in E. coli host derived from BL21
# Outline: as §1
# EPHB4 = molecular target: T21, EPHB4 (Homo sapiens, UniProt P54760)
# T21 construct: host or cells: E. coli host derived from BL21, T7 phage lysate
# Outline: as §1
# PAK4 = molecular target: T22, PAK4 (Homo sapiens, UniProt O96013)
# T22 construct: host or cells: E. coli host derived from the BL21 strain, infected with T7 phage
# Outline: as §1
# T13 sequence (Q13188 whole entry): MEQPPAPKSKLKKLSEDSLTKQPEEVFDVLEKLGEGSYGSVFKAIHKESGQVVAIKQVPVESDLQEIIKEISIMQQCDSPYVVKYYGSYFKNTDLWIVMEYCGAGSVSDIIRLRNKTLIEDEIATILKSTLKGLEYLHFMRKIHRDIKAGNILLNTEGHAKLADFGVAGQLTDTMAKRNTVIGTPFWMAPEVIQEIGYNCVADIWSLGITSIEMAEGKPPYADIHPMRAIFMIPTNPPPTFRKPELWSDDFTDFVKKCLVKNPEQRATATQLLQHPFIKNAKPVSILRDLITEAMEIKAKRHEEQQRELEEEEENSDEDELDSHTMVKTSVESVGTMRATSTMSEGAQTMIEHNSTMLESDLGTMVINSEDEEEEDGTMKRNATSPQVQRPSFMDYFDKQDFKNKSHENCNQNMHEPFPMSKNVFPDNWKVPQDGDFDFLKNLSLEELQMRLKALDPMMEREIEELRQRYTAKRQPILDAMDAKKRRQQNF
# T16 sequence (P57059 whole entry): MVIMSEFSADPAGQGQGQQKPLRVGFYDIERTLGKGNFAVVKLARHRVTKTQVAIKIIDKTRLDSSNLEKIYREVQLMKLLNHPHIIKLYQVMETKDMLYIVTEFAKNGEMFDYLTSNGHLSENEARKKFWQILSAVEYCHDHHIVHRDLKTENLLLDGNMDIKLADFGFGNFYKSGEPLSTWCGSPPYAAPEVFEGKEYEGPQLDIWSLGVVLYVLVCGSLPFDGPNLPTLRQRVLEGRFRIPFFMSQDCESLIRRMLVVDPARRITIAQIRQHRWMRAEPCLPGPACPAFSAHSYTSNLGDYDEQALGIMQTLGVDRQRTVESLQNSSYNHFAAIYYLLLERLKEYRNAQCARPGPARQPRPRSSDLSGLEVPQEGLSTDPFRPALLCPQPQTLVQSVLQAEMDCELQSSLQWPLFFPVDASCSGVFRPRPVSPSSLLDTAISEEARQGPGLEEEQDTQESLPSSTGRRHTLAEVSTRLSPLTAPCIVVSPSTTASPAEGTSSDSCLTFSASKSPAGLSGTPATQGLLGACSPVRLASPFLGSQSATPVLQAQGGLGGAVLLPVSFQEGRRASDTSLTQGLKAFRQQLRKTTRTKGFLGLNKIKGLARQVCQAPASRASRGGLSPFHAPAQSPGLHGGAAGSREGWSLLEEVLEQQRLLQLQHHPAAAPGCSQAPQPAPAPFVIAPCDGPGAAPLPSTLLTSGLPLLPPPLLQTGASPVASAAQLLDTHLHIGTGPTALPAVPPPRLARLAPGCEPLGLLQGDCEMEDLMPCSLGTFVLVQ
# T18 sequence (O75116 whole entry): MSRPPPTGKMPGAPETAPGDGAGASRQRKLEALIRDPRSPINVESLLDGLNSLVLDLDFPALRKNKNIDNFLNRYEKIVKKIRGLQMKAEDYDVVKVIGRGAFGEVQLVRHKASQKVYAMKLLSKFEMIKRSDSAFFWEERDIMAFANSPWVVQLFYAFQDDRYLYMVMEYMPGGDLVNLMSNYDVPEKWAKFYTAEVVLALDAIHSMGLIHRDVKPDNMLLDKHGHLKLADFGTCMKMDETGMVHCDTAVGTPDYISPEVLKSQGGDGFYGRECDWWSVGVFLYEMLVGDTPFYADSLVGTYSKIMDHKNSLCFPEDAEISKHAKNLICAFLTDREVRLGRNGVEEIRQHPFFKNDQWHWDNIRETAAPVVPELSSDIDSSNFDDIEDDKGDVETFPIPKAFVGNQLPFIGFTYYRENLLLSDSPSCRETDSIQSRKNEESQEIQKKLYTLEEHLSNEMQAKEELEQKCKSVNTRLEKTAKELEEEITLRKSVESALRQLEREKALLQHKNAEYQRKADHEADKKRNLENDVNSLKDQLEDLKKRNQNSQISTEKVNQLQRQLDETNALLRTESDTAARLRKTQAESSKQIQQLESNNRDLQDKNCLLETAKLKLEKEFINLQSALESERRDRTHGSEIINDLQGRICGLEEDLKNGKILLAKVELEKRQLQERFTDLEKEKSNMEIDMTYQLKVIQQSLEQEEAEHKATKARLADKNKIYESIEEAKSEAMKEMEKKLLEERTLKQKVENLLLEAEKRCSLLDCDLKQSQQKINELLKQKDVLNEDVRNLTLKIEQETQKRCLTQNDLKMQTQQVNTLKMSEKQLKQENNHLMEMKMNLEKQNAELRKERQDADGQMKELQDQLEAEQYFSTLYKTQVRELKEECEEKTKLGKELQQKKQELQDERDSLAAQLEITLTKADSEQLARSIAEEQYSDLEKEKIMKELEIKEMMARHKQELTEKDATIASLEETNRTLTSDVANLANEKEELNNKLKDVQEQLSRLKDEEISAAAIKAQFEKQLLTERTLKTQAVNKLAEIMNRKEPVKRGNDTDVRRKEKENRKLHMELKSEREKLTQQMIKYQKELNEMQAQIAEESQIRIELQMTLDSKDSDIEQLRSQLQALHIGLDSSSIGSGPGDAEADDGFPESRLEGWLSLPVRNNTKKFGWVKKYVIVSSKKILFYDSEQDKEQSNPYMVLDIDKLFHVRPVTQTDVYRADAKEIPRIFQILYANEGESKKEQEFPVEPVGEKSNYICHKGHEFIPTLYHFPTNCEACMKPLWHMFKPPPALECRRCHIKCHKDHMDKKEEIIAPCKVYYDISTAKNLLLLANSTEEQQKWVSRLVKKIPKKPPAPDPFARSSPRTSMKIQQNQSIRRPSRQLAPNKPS
# T5 sequence (P00519 whole entry): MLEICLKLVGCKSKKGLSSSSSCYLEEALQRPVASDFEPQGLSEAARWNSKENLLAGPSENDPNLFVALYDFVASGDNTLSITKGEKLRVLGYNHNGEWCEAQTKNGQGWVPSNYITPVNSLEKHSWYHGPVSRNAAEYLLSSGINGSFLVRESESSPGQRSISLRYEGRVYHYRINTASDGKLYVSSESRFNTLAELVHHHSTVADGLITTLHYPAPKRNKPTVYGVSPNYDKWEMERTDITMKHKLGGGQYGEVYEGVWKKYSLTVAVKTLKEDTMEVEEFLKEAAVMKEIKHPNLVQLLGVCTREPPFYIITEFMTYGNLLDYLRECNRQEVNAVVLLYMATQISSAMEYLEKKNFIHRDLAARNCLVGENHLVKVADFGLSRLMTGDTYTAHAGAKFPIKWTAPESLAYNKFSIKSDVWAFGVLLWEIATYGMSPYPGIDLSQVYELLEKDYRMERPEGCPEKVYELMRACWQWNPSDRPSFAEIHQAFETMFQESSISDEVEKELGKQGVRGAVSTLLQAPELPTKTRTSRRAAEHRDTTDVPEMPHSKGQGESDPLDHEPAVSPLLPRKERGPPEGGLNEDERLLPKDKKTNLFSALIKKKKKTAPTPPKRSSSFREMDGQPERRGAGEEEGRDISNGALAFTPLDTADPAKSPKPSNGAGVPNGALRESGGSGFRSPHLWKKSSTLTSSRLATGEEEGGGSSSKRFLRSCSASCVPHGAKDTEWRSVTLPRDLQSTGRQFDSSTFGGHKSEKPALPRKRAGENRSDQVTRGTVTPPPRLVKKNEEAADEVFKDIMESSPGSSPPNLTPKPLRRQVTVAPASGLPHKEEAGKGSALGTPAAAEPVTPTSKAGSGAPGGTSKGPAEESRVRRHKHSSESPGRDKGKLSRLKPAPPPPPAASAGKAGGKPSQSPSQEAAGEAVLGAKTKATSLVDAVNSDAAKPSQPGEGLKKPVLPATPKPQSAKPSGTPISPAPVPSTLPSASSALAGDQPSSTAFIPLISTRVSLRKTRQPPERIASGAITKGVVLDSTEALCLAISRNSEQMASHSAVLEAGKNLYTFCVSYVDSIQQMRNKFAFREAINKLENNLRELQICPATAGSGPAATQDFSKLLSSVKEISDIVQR
# T1 sequence (Q9UK32 426-683 limits assumed): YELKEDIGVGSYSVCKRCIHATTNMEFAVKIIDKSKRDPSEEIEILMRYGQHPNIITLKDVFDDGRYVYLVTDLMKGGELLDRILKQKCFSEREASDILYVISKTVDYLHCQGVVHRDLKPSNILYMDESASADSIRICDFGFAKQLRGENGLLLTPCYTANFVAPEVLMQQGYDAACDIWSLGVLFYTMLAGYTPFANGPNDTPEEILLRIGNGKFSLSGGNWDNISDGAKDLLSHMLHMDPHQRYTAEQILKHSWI
# T14 sequence (Q9HC98 whole entry): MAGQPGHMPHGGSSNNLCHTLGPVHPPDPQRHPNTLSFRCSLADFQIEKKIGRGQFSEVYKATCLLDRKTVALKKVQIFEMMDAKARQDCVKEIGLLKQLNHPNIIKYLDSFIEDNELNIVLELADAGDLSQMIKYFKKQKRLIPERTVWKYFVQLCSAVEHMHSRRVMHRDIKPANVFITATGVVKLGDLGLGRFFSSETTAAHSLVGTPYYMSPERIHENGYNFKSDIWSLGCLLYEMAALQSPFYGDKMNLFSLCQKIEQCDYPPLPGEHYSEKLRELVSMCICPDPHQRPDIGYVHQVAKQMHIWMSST
# T22 sequence (O96013 whole entry): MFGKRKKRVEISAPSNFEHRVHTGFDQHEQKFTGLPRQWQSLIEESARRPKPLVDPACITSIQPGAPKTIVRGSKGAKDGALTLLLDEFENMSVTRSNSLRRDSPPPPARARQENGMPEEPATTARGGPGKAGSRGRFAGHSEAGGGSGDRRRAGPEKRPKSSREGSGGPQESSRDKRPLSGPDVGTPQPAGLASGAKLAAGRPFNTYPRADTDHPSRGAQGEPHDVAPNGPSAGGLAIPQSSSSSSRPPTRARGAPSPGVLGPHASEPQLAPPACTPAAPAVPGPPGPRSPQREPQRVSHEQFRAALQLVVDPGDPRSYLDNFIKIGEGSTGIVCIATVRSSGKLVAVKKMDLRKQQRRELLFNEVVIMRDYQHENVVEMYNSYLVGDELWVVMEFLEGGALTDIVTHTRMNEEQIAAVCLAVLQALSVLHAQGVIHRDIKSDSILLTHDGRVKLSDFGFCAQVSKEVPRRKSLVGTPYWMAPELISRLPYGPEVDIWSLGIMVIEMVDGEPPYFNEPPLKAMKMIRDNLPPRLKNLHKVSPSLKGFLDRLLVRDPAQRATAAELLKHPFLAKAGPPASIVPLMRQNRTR
smiles,measurement,setting,value
"C#Cc1cccc(Nc2ncnc3cc(OC)c(OCCCN4CCOCC4)cc23)c1 [NRC-2694, N-(3-ethylnylphenyl)-7-methoxy-6-[3-(4-morpholinyl)propoxy]-4-quinazolinamine]",% Ctrl @ 10000 nM,[1],55 % Ctrl
same,% Ctrl @ 10000 nM,CSK,53 % Ctrl
same,% Ctrl @ 10000 nM,TESK1,83 % Ctrl
same,% Ctrl @ 10000 nM,KIT,26 % Ctrl
same,% Ctrl @ 10000 nM,ABL1,67 % Ctrl
same,% Ctrl @ 10000 nM,FLT3 (D835Y),9.4 % Ctrl
same,% Ctrl @ 10000 nM,DAPK1,26 % Ctrl
same,% Ctrl @ 10000 nM,GSK3A,75 % Ctrl
same,% Ctrl @ 10000 nM,CSNK1D,25 % Ctrl
same,% Ctrl @ 10000 nM,PDGFRA,50 % Ctrl
same,% Ctrl @ 10000 nM,RIPK1,100 % Ctrl
same,% Ctrl @ 10000 nM,PHKG2,59 % Ctrl
same,% Ctrl @ 10000 nM,MST2,85 % Ctrl
same,% Ctrl @ 10000 nM,NEK6,94 % Ctrl
same,% Ctrl @ 10000 nM,SgK110,83 % Ctrl
same,% Ctrl @ 10000 nM,SIK,53 % Ctrl
same,% Ctrl @ 10000 nM,PRKD2,0.4 % Ctrl
same,% Ctrl @ 10000 nM,ROCK2,38 % Ctrl
same,% Ctrl @ 10000 nM,[2],84 % Ctrl
same,% Ctrl @ 10000 nM,[3],81 % Ctrl
same,% Ctrl @ 10000 nM,EPHB4,39 % Ctrl
same,% Ctrl @ 10000 nM,PAK4,80 % Ctrl

# Source: patent US9050341B2, “Methods of treating drug resistant and other tumors by administering 6,7-dialkoxy quinazoline derivatives” (NATCO PHARMA LIMITED, priority 2009, dated 2015)
